Source: patent US9630894B2, “Energy efficient method and apparatus for the extraction of biomolecules from dilute aqueous solution” (DYNASEP INC., priority 2012, dated 2017)

Assay: CCC extraction with DME of clarified fermentation broth from Clostridium acetobutylicum, GC and DNS assay
Assay type: physicochemical
Procedure: This example describes three different runs of the CCC with fermentation broth from Clostridium acetobutylicum. […] The fermentation was intentionally interrupted prior to completion.
The extraction column operated at room temperature (˜25° C.) throughout the column. Periodic extract and raffinate samples were taken and analyzed for the constituents in the extract and raffinate discharges.
This example describes three different runs. In all cases, the mass of solvent to the mass of feed ratio (S/F) was 0.9. In all example the fermentation broth was first centrifuged to removal all cellular matter. Thus, the feed solution was clarified. In the case of the first run, the following components were measured via gas chromatograph (GC) analysis using external standard calibration. The external standard was run prior to analyzing the samples to provide individual calibration between peak area and the respective constituent under measure. […] Acetate was the conjugate base of acetic acid. Butyrate was the conjugate base of butyric acid. All components were quantified in the extract and raffinate. Since the extract and raffinate are mostly water and DME dissolves in water to approximately 20 wt. %, the samples were allowed to degas over a 24 hour period.
During the run, samples were taken of the extract and raffinate. In the case of the extract, the bulk DME was removed by reduction of pressure and addition of heat to flash the DME from the water and other solution constituents.
Extract and raffinate samples were collected at periodic intervals during the CCC testing. […] Glucose was measured via a DNS (3,5-dinitrosalicylic acid) assay.
In cases where the extract formed a two phase solution, the extract samples were diluted with distilled water to create a single phase and homogenous sample prior to GC. The dilution factor was then used to correct the GC measurements for concentrations prior to dilution.

[1] = Run 3, Extract Bot, time 31 min
[2] = Run 3, Extract Bot, time 37 min
[3] = Run 3, Extract Top, time 31 min
[4] = Run 3, Extract Top, time 37 min

In the case of `CC(C)CO` [isobutanol, 2-methyl-1-propanol], the distribution coefficients compared (Run 2, isobutanol versus butanol) is reported as “approximately equal”, the “Ratio of I/N (isobutanol/n-butanol)” value [1] is reported as 1.16 and the concentration in sample [1] is reported as 39.30 g/L. For the same compound, the “Ratio of I/N (isobutanol/n-butanol)” value [2] was 1.15, the concentration in sample [2] was 39.69 g/L and the “Ratio of I/N (isobutanol/n-butanol)” value [3] was 1.04. For the same compound, the concentration in sample [3] was 316.67 g/L, the “Ratio of I/N (isobutanol/n-butanol)” value [4] was 1.03 and the concentration in sample [4] was 328.99 g/L. The “Ratio of I/N (isobutanol/n-butanol)” value (Run 3, Extract, time 22 min) was 0.98, the concentration in sample (Run 3, Extract, time 22 min) was 18.65 g/L and the “Ratio of I/N (isobutanol/n-butanol)” value (Run 3, Extract, time 27 min) was 1.10. The concentration in sample (Run 3, Extract, time 27 min) was 35.80 g/L, the “Ratio of I/N (isobutanol/n-butanol)” value (Run 3, Extract, time 43 min) was 1.07 and the concentration in sample (Run 3, Extract, time 43 min) was 35.34 g/L. For the same compound, the “Ratio of I/N (isobutanol/n-butanol)” value (Run 3, Extract, time 70 min) was 1.05, the concentration in sample (Run 3, Extract, time 70 min) was 30.95 g/L and the “Ratio of I/N (isobutanol/n-butanol)” value (Run 3, Extract, time 74 min) was 1.02. For the same compound, the concentration in sample (Run 3, Extract, time 74 min) was 31.83 g/L, the “Ratio of I/N (isobutanol/n-butanol)” value (Run 3, Extract, time 78 min) was 1.01 and the concentration in sample (Run 3, Extract, time 78 min) was 33.19 g/L. The “Ratio of I/N (isobutanol/n-butanol)” value (Run 3, Extract, time 82 min) was 1.02, the concentration in sample (Run 3, Extract, time 82 min) was 37.48 g/L and the “Ratio of I/N (isobutanol/n-butanol)” value (Run 3, Feed, time 0 min) was 1.24. The concentration in sample (Run 3, Feed, time 0 min) was 11.65 g/L, the “Ratio of I/N (isobutanol/n-butanol)” value (Run 3, Raffinate, time 22 min) was 1.34 and the concentration in sample (Run 3, Raffinate, time 22 min) was 2.72 g/L. For the same compound, the “Ratio of I/N (isobutanol/n-butanol)” value (Run 3, Raffinate, time 27 min) was 1.22, the concentration in sample (Run 3, Raffinate, time 27 min) was 0.38 g/L and the “Ratio of I/N (isobutanol/n-butanol)” value (Run 3, Raffinate, time 31 min) was 1.28. For the same compound, the concentration in sample (Run 3, Raffinate, time 31 min) was 0.38 g/L, the “Ratio of I/N (isobutanol/n-butanol)” value (Run 3, Raffinate, time 37 min) was 1.29 and the concentration in sample (Run 3, Raffinate, time 37 min) was 0.23 g/L. The “Ratio of I/N (isobutanol/n-butanol)” value (Run 3, Raffinate, time 43 min) was 1.42, the concentration in sample (Run 3, Raffinate, time 43 min) was 0.23 g/L and the “Ratio of I/N (isobutanol/n-butanol)” value (Run 3, Raffinate, time 70 min) was 1.37. The concentration in sample (Run 3, Raffinate, time 70 min) was 0.43 g/L, the “Ratio of I/N (isobutanol/n-butanol)” value (Run 3, Raffinate, time 74 min) was 1.45 and the concentration in sample (Run 3, Raffinate, time 74 min) was 0.48 g/L. The “Ratio of I/N (isobutanol/n-butanol)” value (Run 3, Raffinate, time 78 min) was 1.41, the concentration in sample (Run 3, Raffinate, time 78 min) was 0.48 g/L and the “Ratio of I/N (isobutanol/n-butanol)” value (Run 3, Raffinate, time 82 min) was 1.44. The concentration in sample (Run 3, Raffinate, time 82 min) was 0.48 g/L.
With `CC(=O)C(C)O` (stereo not drawn) [Acetoin] the concentration in sample [1] was 1.64 g/L, the concentration in sample [2] was 1.88 g/L and the concentration in sample [3] was 0.91 g/L. The concentration in sample [4] was 1.02 g/L, the concentration in sample (Run 3, Extract, time 22 min) was 0.96 g/L and the concentration in sample (Run 3, Extract, time 27 min) was 1.00 g/L. For the same compound, the concentration in sample (Run 3, Extract, time 43 min) was 1.83 g/L, the concentration in sample (Run 3, Extract, time 70 min) was 1.62 g/L and the concentration in sample (Run 3, Extract, time 74 min) was 1.46 g/L. It also gave a concentration in sample (Run 3, Extract, time 78 min) of 1.60 g/L, a concentration in sample (Run 3, Extract, time 82 min) of 1.65 g/L and a concentration in sample (Run 3, Feed, time 0 min) of 0.33 g/L. The concentration in sample (Run 3, Raffinate, time 22 min) was 0.07 g/L, the concentration in sample (Run 3, Raffinate, time 27 min) was 0.00 g/L and the concentration in sample (Run 3, Raffinate, time 31 min) was 0.00 g/L. The concentration in sample (Run 3, Raffinate, time 37 min) was 0.00 g/L, the concentration in sample (Run 3, Raffinate, time 43 min) was 0.00 g/L and the concentration in sample (Run 3, Raffinate, time 70 min) was 0.00 g/L. For the same compound, the concentration in sample (Run 3, Raffinate, time 74 min) was 0.00 g/L, the concentration in sample (Run 3, Raffinate, time 78 min) was 0.06 g/L and the concentration in sample (Run 3, Raffinate, time 82 min) was 0.00 g/L.
With sugar the “extraction into DME” value (Run 2) was “a significant portion of the sugar was not extracted”, the concentration in sample [1] was 4.74 g/L and the concentration in sample [2] was 5.78 g/L. For the same compound, the concentration in sample [3] was 0.00 g/L, the concentration in sample [4] was 0.00 g/L and the concentration in sample (Run 3, Extract, time 22 min) was 1.46 g/L. It also gave a concentration in sample (Run 3, Extract, time 27 min) of 1.44 g/L, a concentration in sample (Run 3, Extract, time 43 min) of 6.20 g/L and a concentration in sample (Run 3, Extract, time 70 min) of 3.94 g/L. The concentration in sample (Run 3, Extract, time 74 min) was 3.87 g/L, the concentration in sample (Run 3, Extract, time 78 min) was 4.81 g/L and the concentration in sample (Run 3, Extract, time 82 min) was 4.95 g/L. It also gave a concentration in sample (Run 3, Feed, time 0 min) of 48.47 g/L, a concentration in sample (Run 3, Raffinate, time 22 min) of 1.39 g/L and a concentration in sample (Run 3, Raffinate, time 27 min) of 0.95 g/L. It also gave a concentration in sample (Run 3, Raffinate, time 31 min) of 47.66 g/L, a concentration in sample (Run 3, Raffinate, time 37 min) of 41.23 g/L and a concentration in sample (Run 3, Raffinate, time 43 min) of 48.87 g/L. It also gave a concentration in sample (Run 3, Raffinate, time 70 min) of 42.10 g/L, a concentration in sample (Run 3, Raffinate, time 74 min) of 44.36 g/L and a concentration in sample (Run 3, Raffinate, time 78 min) of 48.18 g/L. For the same compound, the concentration in sample (Run 3, Raffinate, time 82 min) was 43.14 g/L.
With `CCCC(=O)O` [butyrate] the “extraction into DME” value (Run 1, pH greater than 5.5) was “About half”, the concentration in sample [1] was 1.57 g/L and the concentration in sample [2] was 1.24 g/L. It also gave a concentration in sample [3] of 22.09 g/L, a concentration in sample [4] of 22.52 g/L and a concentration in sample (Run 3, Extract, time 22 min) of 3.52 g/L. The concentration in sample (Run 3, Extract, time 27 min) was 9.29 g/L, the concentration in sample (Run 3, Extract, time 43 min) was 2.21 g/L and the concentration in sample (Run 3, Extract, time 70 min) was 1.71 g/L. For the same compound, the concentration in sample (Run 3, Extract, time 74 min) was 1.38 g/L, the concentration in sample (Run 3, Extract, time 78 min) was 3.01 g/L and the concentration in sample (Run 3, Extract, time 82 min) was 1.88 g/L. The concentration in sample (Run 3, Feed, time 0 min) was 1.71 g/L, the concentration in sample (Run 3, Raffinate, time 22 min) was 50.78 g/L and the concentration in sample (Run 3, Raffinate, time 27 min) was 19.52 g/L. The concentration in sample (Run 3, Raffinate, time 31 min) was 0.88 g/L, the concentration in sample (Run 3, Raffinate, time 37 min) was 0.88 g/L and the concentration in sample (Run 3, Raffinate, time 43 min) was 0.88 g/L. It also gave a concentration in sample (Run 3, Raffinate, time 70 min) of 0.95 g/L, a concentration in sample (Run 3, Raffinate, time 74 min) of 0.97 g/L and a concentration in sample (Run 3, Raffinate, time 78 min) of 0.87 g/L. The concentration in sample (Run 3, Raffinate, time 82 min) was 0.93 g/L.
